The values that follow come from US20260191874A1, “FUSED AMINO PYRIMIDINE COMPOUNDS FOR TREATMENT OF AUTISM SPECTRUM DISORDER, OBSESSIVE COMPULSIVE DISORDER AND TICS” (Ovid Therapeutics Inc., priority 2024, published 2026).

The target in data set [1] is T1, KCC2 (Homo sapiens, UniProt Q9H2X9).
T1 construct: expressed in transfected cells; host or cells: HEK-293 (ATCC CRL-1573)
T1 sequence (Q9H2X9 1-1116 isoform Q9H2X9-2): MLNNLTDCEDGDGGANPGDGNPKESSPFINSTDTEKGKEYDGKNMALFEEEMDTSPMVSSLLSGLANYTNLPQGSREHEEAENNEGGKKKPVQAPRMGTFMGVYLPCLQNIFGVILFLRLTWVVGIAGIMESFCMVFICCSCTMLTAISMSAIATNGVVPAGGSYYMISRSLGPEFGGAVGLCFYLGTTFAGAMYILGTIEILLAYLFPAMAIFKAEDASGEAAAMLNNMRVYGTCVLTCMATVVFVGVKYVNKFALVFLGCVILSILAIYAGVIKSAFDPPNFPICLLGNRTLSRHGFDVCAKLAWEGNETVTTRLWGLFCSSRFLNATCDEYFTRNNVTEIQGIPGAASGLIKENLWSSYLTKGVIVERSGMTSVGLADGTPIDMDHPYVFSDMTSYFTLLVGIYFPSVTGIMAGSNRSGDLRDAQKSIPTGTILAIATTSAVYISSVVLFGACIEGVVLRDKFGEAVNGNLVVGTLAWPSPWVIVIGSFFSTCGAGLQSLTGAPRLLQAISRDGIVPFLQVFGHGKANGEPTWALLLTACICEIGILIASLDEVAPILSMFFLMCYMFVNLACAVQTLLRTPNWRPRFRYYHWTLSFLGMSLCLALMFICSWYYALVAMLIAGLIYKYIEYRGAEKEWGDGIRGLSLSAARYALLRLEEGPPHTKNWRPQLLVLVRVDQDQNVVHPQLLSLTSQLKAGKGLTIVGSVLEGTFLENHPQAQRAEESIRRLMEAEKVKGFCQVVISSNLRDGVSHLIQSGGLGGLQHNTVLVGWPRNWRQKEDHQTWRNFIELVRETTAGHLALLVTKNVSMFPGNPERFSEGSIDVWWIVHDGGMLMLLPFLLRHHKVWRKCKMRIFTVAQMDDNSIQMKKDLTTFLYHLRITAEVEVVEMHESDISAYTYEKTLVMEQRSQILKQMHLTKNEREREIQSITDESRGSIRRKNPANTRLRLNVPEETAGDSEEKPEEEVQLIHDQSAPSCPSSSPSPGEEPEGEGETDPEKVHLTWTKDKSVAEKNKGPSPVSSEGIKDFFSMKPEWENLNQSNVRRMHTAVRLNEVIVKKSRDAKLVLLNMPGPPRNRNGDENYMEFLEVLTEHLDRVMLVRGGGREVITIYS
In words: Cell surface biotinylation of KCC2 in HEK-293 cells. The data set is classed as cell-based. To be noted: 15 min. As to the method:
Cell Culture and biotinylation. HEK-293 cells were purchased from ATCC (CRL-1573) and transfected with human KCC2 and GFP expression plasmids using Lipofectamine 2000. Cells were utilized for experimentation 48-72 h following transfection. Cells were biotinylated at 4° C. using NHS-Biotin. Following lysis and purification on immobilized avidin beads, cell surface and total fractions were subject to immunoblotting as outlined previously (Conway et al., 2017, supra).
The reliability of the biotinylation procedure was assessed via immunoblotting with antibodies against the cytosolic protein actin. Actin was present in the total lysates but was absent from the surface fractions (FIG. 2C).

Details of data set [2]: species or system mice. Particulars: in vivo.
A short description of data set [3]: PK studies: brain and plasma levels by LC-MS/MS. The data set is classed as in vivo, mice.
In data set [4] the test system is hippocampus. Briefly: Neuronal cell death in the hippocampus of mice treated with diazepam. The data set is classed as in vivo. Particulars: Compound A and diazepam, compared to diazepam alone.

The structures appear in SMILES notation. Bounds are passed on as bounds.

On to `C[C@@H]1CN(c2nc3c(c(Nc4ccc(C5CCCCC5)cc4)n2)COC3)CCO1` [Compound A, (R)—N-(4-cyclohexylphenyl)-2-(2-methylmorpholino)-5,7-dihydrofuro[3,4-d]pyrimidin-4-amine], for which the “level of KCC2 on the plasma membrane (surface/total)” value in data set [1] (0.3 μM) was 94.5±8.4 % of control. For the same molecule, the “level of KCC2 on the plasma membrane (surface/total)” value in data set [1] (3 μM) is listed as 104.7±8.4 % of control. Also, the “gross effects on mouse behavior” value in data set [2] is on record as “no gross effects”. In addition, the “total distance traveled in open field” value in data set [2] (mouse, sc, 50 mg/kg) stood at 6134.2±235.3 cm. Moreover, the “time by which accumulation in the brain was evident” value in data set [3] (25 mg/kg IV bolus, mice) was no more than 30 min. Besides, in data set [3] (50 mg/kg SC), the “time at which accumulation in brain was detected” value was determined as 30 min and the “time of maximal concentration in brain” value came out at 4 h. Further, the “neuronal cell death in the hippocampus” value in data set [4] is “significantly reduced”.
